This passage reports IC50 results from BindingDB's records for doi:10.1021/jm401056w (Takeda Pharmaceutical, 2013).

Broadly, the IC50 is the concentration at which inhibition is half-maximal.

The nature of the assay: Inhibition of human KISS1R expressed in CHO cells assessed as inhibition of KISS1R-mediated cell growth after 3 days by cell counting kit-8 assay.

Consider `CC(C)C[C@H](NC(=O)CNC(=O)[C@H](Cc1ccccc1)NC(=O)[C@H](CO)NC(=O)[C@H](CC(N)=O)NC(=O)[C@H](Cc1c[nH]c2ccccc12)NC(=O)[C@H](CC(N)=O)NC(=O)[C@@H](N)Cc1ccc(O)cc1)C(=O)N[C@@H](CCCN=C(N)N)C(=O)N[C@@H](Cc1ccccc1)C(N)=O` [(2S)-2-[(2S)-2-[(2S)-2-[(2S)-2-amino-3-(4-hydroxyphenyl)propanamido]butanediamido]-3-(1H-indol-3-yl)propanamido]-N-[(1S)-1-{[(1S)-1-[({[(1S)-1-{[(1S)-4-carbamimidamido-1-{[(1S)-1-carbamoyl-2-phenylethyl]carbamoyl}butyl]carbamoyl}-3-methylbutyl]carbamoyl}methyl)carbamoyl]-2-phenylethyl]carbamoyl}-2-hydroxyethyl]butanediamide], for which the IC50 stood at 8.51 µM. As for `CNC(N)=NCCC[C@H](NC(=O)[C@H](CC(C)C)NC(=O)CNC(=O)[C@H](Cc1ccccc1)NC(=O)[C@H](CO)NC(=O)[C@H](CC(N)=O)NC(=O)[C@H](Cc1c[nH]c2ccccc12)NC(=O)[C@H](CC(N)=O)NC(=O)[C@H](N)Cc1ccc(O)cc1)C(=O)N[C@@H](Cc1ccccc1)C(N)=O`, the figure is 0.087 µM.
